# Source: US11679168B2, “Caspase-3-triggered molecular self-assembling PET probes and uses thereof” (The Board of Trustees of the Leland Stanford Junior …, priority 2018, dated 2023)
# Values joined by “and” are separate entries in the source; they are usually repeats but may differ in a detail not shown here. Equal values may be shown once. Read-outs that look alike come from different tables or passages of the source. Square brackets hold non-standard residues; d marks the D form. Peptide text beside a SMILES is read from it. * marks the point of attachment. NH(CH2)3O(2-CNpyrimidin5yl) = N#Cc1ncc(OCCCN*)cn1; 4Amb = NCc1ccc(C(=O)O)cc1; Pra = C#CC[CH](N)C(=O)O
# Assays:
# [1] = cited from earlier work; for 2nd order rate constant k: aromatic nitrile with L-cysteine, reported in Reference 13
# [2] = system: β-galactosidase activity in 9L/LacZ cells
# Method: FIG. 33 illustrates quantification of fluorescent intensity in the flow cytometry data in FIG. 3G.
# Confocal Microscopy Imaging of 9L/LacZ Cell With B-SNAF2/4-BDP: Cells were incubated with B-SNAF2-BDP or B-SNAF4-BDP (2 μM) at 37° C. for 2 hours and then were then washed three times with cold PBS. The cells were fixed with 4% paraformaldehyde and stained with 2 μM Hoechst 33258 (Sigma) for 10 min. The cells were washed three times with PBS mounted with 2 μM Hoechst 33258 (Sigma) at 37° C. for 20 min. Cells were then fixed and imaged using a confocal laser scanning microscope (Zeiss LSM710; Zeiss America) with DAPI and DsRed filters. The images were processed using the ImageJ software package (National Institutes of Health).
# [3] = DLS of nanoaggregates of cyclized products; format: physicochemical; conditions: 10 μM, after raising pH from 4 to 7.4
# Method: DLS Measurements: DLS measurements samples of I-VI were prepared by diluting fresh stock solutions of I-VI (20 mM in DMSO) to 10 μM solutions with HCl aqueous solution to adjust pH to 4. DLS measurements samples of cycl-I-VI were prepared by adding 0.5 μL of freshly prepared stock solutions of 1-VI (20 mM in DMSO), 6 μL saturated sodium bicarbonate solution into 993.5 μL H2O to adjust pH to 7.4.
# [4] = Intramolecular cyclization kinetics (HPLC assay); format: physicochemical; conditions: PBS, pH 7.4, room temperature
# Method: General Methods for Measuring Intramolecular Cyclization Kinetics: The 1st order rate constants of intramolecular cyclization of I-VI to produce cycl-I-VI, respectively were measured by HPLC assays adapted from the previously reported assay^38. To solutions of substrates I-VI in phosphate buffered saline (PBS) (1×, pH=7.4) were added a solution of TCEP (2.0 equiv.) in PBS (freshly prepared and the pH was adjusted to 7.4 by 1 N sodium hydroxide aqueous solution), affording a final concentration of 100 μM for the substrates. The mixture was kept at room temperature (23° C.) and monitored by HPLC at different time points. The concentration of remaining starting material was calculated using the peak integrals of the starting material at 254 nm. Based on first-order reaction law, In([At]/[A0]) was plotted against time and the slope of the linear regression result gives the first-order rate constant.
# [5] = Condensation kinetics of aromatic nitriles with L-cysteine (HPLC assay); format: physicochemical; conditions: for 2nd order rate constant k: aromatic nitrile with L-cysteine, PBS buffer, room temperature, HPLC assay; for second-order reaction rate: cyano-substituted aromatic with L-cysteine, phosphate-buffered saline (pH=7.4), FIG. 50A
# Method: (§1) General Methods for Measuring Kinetics of Condensation Reactions Between Aromatic Nitriles and Aminothiols: The 2nd order rate constants for condensation reactions between aromatic nitriles and aminothiols were measured by using HPLC assays. To solutions of aromatic nitriles (100 μM) in phosphate buffered saline (PBS) (1×, pH=7.4) were added aminothiol (1.0 equiv.), TCEP (2.0 equiv.) and NaHCO3 (3 equiv.). The reaction solutions were kept at room temperature (23° C.) and monitored by HPLC at different time points. The conversion rates were calculated using the peak integrals of aromatic nitriles and the condensation products at 254 nm. Based on 2nd order reaction law, 1/[aromatic nitrile] was plotted against time and the slope of the linear regression result gives the 2nd order rate constant.
# [6] = Condensation kinetics of aminothiols with CBT (HPLC assay); format: physicochemical; conditions: for 2nd order rate constant k: aminothiol with CBT, PBS buffer, room temperature, HPLC assay; for second-order reaction rate: substituted cysteine analogues with CBT, FIG. 50B
# Method: as §1
# recombinant human MetAP2 = recombinant human MetAP2 (Homo sapiens, UniProt P50579); assay: Macrocyclization and nanoaggregation of M-SNAT with recombinant MetAP2; conditions: 10 μM, MetAP2 7.5 μg/ml, TCEP, 24 h
# [7] = system: MetAP2 activity in DU145 cells; assay: Imaging MetAP2 activity in DU145 cells (post click Cy5 labeling); format: cell-based, human; conditions: DU145, 20 μM, 24 h
# Method: Imaging MetAP2 activity in cancer cells: […] Post click fluorescent labeling was performed as illustrated in FIG. 45A to locate the nanoaggregation in cells and avoid the possible interference with probe uptake by pre-conjugating a large Cy5 fluorophore.
# [8] = system: MetAP2 activity in PC3 cells; assay: Imaging MetAP2 activity in PC3 cells (post click Cy5 labeling); format: cell-based, human
# Method: FIG. 45B illustrates fluorescence microscopy imaging of cy5 post-labeled M-SNAT (20 μM) with or without TNP470 and M-SNAT-ctrl (20 μM) in PC3 cells. Permealized cells were also stained with DAPI (blue).
# Imaging MetAP2 activity in cancer cells: Cell uptake and MetAP2 specific activation of M-SNAT and M-SNAT-ctrl were evaluated in PC3 and DU145 cells with the MetAP2-specific inhibitor TNP-470. Post click fluorescent labeling was performed as illustrated in FIG. 45A to locate the nanoaggregation in cells and avoid the possible interference with probe uptake by pre-conjugating a large Cy5 fluorophore.
# [9] = system: MetAP2 activity in 22Rv1 cells; assay: Imaging MetAP2 activity in 22Rv1 cells (post click Cy5 labeling); format: cell-based, human; conditions: 22Rv1, TNP-470 2 μM
# PC3 tumors = assay: 18F-M-SNAT PET/CT imaging of PC3 xenograft mice; format: in vivo
# Method: FIG. 47A illustrates images after 90 min programed PET/CT scan; n=4. About 150 μCi ^18F-M-SNAT were injected. White and gray indicate CT signal; a thresholding method was utilized to mask the relatively high uptake in liver, spleen, kideney and bladder.
# PET/CT imaging of MetAP2 activity in tumor: Before applying fluorine-18 labeled M-SNAT (^18F-M-SNAT) for studies in vivo, the stability of non-radioactive ^19F-M-SNAT was investigated in mouse serum. The ability of ^18F-M-SNAT to indicate MetAP2 activity was assessed in male nude mice bearing subcutaneous PC3 tumors. When the tumors (right shoulder) were grown to 300-500 mm^3, PBS with or without TNP-470 were injected subcutaneously at 50 mg/kg at a remote position (lower left on the back) every other day for 4 days and then injected every day for 5 more days. The last injection was 4 h before imaging (FIG. 47A).
# On the day of imaging, fluorine-18 was generated using a cyclotron and conjugated to M-SNAT in a rapid two-step chemical synthesis (FIG. 44). About 150 μCi (8.9 pmol)^18F-M-SNAT were injected to mice intravenously for a programed microPET/CT whole body scan through 90 min. […] About 1.3% was retained at 90 min. In comparison, the inhibitor-treated mice hold about 1% ID/cc through the whole scanning period (FIG. 47C). […] Tumors were resected 20 h after tracer injection for IHC staining ex vivo.
# Chain of recombinant human MetAP2 (P50579 whole entry): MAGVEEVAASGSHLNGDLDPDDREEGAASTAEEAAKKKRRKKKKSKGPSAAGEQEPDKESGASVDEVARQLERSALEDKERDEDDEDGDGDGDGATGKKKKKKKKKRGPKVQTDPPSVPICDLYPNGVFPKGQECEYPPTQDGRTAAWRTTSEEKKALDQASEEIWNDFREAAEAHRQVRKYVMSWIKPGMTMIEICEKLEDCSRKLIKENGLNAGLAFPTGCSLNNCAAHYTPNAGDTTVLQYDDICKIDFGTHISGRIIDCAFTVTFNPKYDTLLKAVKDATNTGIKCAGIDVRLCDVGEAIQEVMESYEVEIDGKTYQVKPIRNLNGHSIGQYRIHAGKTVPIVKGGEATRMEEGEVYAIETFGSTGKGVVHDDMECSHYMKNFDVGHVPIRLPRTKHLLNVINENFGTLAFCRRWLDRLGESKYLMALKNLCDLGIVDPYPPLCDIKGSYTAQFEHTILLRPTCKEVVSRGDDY
smiles,measurement,setting,value
Cc1csc(C#N)n1 [4-methyl-2-thiazolecarbonitrile],second-order reaction rate,"[1]; with cysteine, Ye et al. (2011)",0.7 M⁻¹ s⁻¹
CCSSCC(NC(=O)OCc1ccc(OC2O[C@H](CO)[C@H](O)[C@H](O)C2O)cc1)C(=O)NCC(=O)NC(CCCCNC(=O)CCc1ccc2n1[B-](F)(F)[N+]1=C(C)C=C(C)C1=C2)C(=O)NCc1ccc(C(=O)NCCCOc2cnc(C#N)nc2)cc1 (some centres unmarked) [B-SNAF4-BDP],"retention of fluorescent signal, 9L/LacZ over 9L/Luc","[2]; 2 μM, 37° C., 2 hours",2.5 fold
same,"retention of fluorescent signal, 9L/LacZ versus 9L/Luc",[2]; fluorescent imaging,significantly higher retention
C#CCC(NC(=O)C(N)CS)C(=O)NCc1ccc(C(=O)NCCCOc2ccc3nc(C#N)ccc3c2)cc1 (centres unmarked) [Compound II],diameter of nanoaggregates (DLS),[3],80 nm
same,1st order rate constant of intramolecular cyclization,[4],1.2×10^−3 s^−1 and 1.2±0.04×10^−3 s^−1
N#Cc1ccc2cc(OCCCNC(=O)c3ccc(CNC(=O)C(N)CS)cc3)ccc2n1 (centres unmarked) [Compound I],diameter of nanoaggregates (DLS),[3],80 nm
"N#Cc1ccccn1 [Entry 3, 2-pyridinecarbonitrile]",2nd order rate constant k,[1],No Rxn^a
same,2nd order rate constant k,[1]; listed as 2-pyridinecarbonitrile,no reaction was observed
"N#Cc1ncc(Br)cn1 [Entry 4, 5-bromo-2-pyrimidinecarbonitrile]",2nd order rate constant k,[5],2.21 ± 0.037 M⁻¹ s⁻¹
same,2nd order rate constant k,[5]; listed as 5-bromo-2-pyrimidinecarbonitrile,2.21 M⁻¹ s⁻¹
same,second-order reaction rate,[5],0.58 M⁻¹ s⁻¹
"N#Cc1ncccn1 [Entry 5, 2-pyrimidinecarbonitrile]",2nd order rate constant k,[5],0.99 ± 0.17 M⁻¹ s⁻¹
same,2nd order rate constant k,[5]; listed as 2-pyrimidinecarbonitrile,0.99 M⁻¹ s⁻¹
same,second-order reaction rate,[5],0.17 M⁻¹ s⁻¹
CC(C)(C)OC(=O)NCCCOc1cnc(C#N)nc1 [Entry 6],2nd order rate constant k,[5],0.01 ± 0.0017 M⁻¹ s⁻¹
same,2nd order rate constant k,[5]; listed as alkoxy-substituted 2-pyrimidinecarbonitrile,0.01 M⁻¹ s⁻¹
"CC(C)(S)[C@@H](N)C(=O)O [Entry 7, D-penicillamine]",2nd order rate constant k,[6],0.029 ± 0.003 M⁻¹ s⁻¹
same,2nd order rate constant k,[6]; listed as D-penicillamine,0.029 M⁻¹ s⁻¹
same,second-order reaction rate,[6],0.06 M⁻¹ s⁻¹
"C[C@](N)(CS)C(=O)O [Entry 8, 2-methyl-L-cysteine]",2nd order rate constant k,[6],5.35 ± 0.8 M⁻¹ s⁻¹
same,2nd order rate constant k,[6]; listed as 2-methyl-L-cysteine,5.35 M⁻¹ s⁻¹
same,second-order reaction rate,[6],5.7 M⁻¹ s⁻¹
C#CCC(NC(=O)CNC(=O)C(CSC)NC(=O)C(N)CCSC)C(=O)NCc1ccc(C(=O)NCCCOc2cnc(C#N)nc2)cc1 (centres unmarked) [M-SNAT-ctrl] (H-MC(Me)G[Pra][4Amb]-{NH(CH2)3O(2-CNpyrimidin5yl)}; configuration not given here),"macrocyclization (HPLC, mass spectrometry)",recombinant human MetAP2,could not cyclize
same,Cy5 post-labeled fluorescence in cells,[7],not
same,Cy5 post-labeled fluorescence in cells,"[8]; PC3, 20 μM, 24 h",not
"CO[C@@H]1[C@H](OC(=O)NC(=O)CCl)CC[C@]2(CO2)[C@H]1[C@@]1(C)O[C@@H]1CC=C(C)C [TNP-470, reference compound]",effect on M-SNAT fluorescence,"[8]; PC3, TNP-470 2 μM",significantly reduced
same,inhibition of M-SNAT signal (flow cytometry),"[8]; PC3 cells treated, permealized and post-labeled",22.7%
same,effect on M-SNAT fluorescence,[9],significantly reduced
same,tumor growth versus PBS-treated group,"PC3 tumors; 50 mg/kg s.c., PC3 tumors",no significant difference
CCSSCC(NC(=O)C(N)CCSC)C(=O)NCC(=O)NC(Cc1cn(CCOCCOCCOCC[18F])nn1)C(=O)NCc1ccc(C(=O)NCCCOc2cnc(C#N)nc2)cc1 (centres unmarked) [^18F-M-SNAT],tumor retention,"PC3 tumors; PBS-treated PC3 tumors, at 90 min",About 1.3%
same,tumor uptake,"PC3 tumors; PBS-treated PC3 tumors, within 10 min",1.6 % ID/cc
same,clearance,"PC3 tumors; PC3 xenograft mice, 90 min PET/CT",fast clearance by kidney to bladder
same,tumor uptake,"PC3 tumors; TNP-470 (inhibitor)-treated mice, whole scanning period",about 1 % ID/cc
C#CCC1NC(=O)C2CSC(=N2)c2ccc3cc(ccc3n2)OCCCNC(=O)c2ccc(cc2)CNC1=O (centres unmarked) [cycl-II],diameter of nanoaggregates (DLS),[3],around 80 nm
C#CCC1NC(=O)CNC(=O)C2CSC(=N2)c2ncc(cn2)OCCCNC(=O)c2ccc(cc2)CNC1=O (centres unmarked) [cycl-IV],1st order rate constant of intramolecular cyclization,[4],2.1±0.07×10^−3 s^−1
O=C1NCCCOc2ccc3nc(ccc3c2)C2=NC(CS2)C(=O)NCc2ccc1cc2 (centres unmarked) [cycl-I],diameter of nanoaggregates (DLS),[3],around 80 nm
C#CCC1NC(=O)CNC(=O)C2(C)CSC(=N2)c2ncc(cn2)OCCCNC(=O)c2ccc(cc2)CNC1=O (centres unmarked) [cycl-VI],1st order rate constant of intramolecular cyclization,[4],2.7±0.1×10^−3 s^−1
C#CCC1NC(=O)CCNC(=O)C2CSC(=N2)c2ncc(cn2)OCCCNC(=O)c2ccc(cc2)CNC1=O (centres unmarked) [cycl-V],1st order rate constant of intramolecular cyclization,[4],8.0±0.6×10^−4 s^−1
